Test results reported in ChEMBL document CHEMBL5523716, “Discovery of novel EGFR-PROTACs capable of degradation of multiple EGFR-mutated proteins” (Eur J Med Chem, 2024).
pIC50: −log10 of the molar value.

What was measured:
A549 = test: Antiproliferative activity against human A549 cells harboring EGFR wild type assessed as inhibition of cell growth incubated for 48 to 72 hrs by CCK-8 assay; format: functional, cell-based
HCC827 = test: Antiproliferative activity against human HCC827 cells harboring EGFR Del19 mutant assessed as inhibition of cell growth incubated for 48 to 72 hrs by CCK-8 assay; format: functional, cell-based
[1] = Antitumor activity against human H1975-TM cells xenografted in BALB/c mouse assessed as tumor growth inhibition at 10 mg/kg,ip once daily for 14 days relative to control; format: functional; conditions: 336 h, time 14 day, read-out: TGI
[2] = Antiproliferative activity against human H1975-TM cells harboring EGFR L858R/T790M/C797S mutant assessed as inhibition of cell growth incubated for 48 to 72 hrs by CCK-8 assay; format: functional, cell-based
NCI-H1975 = test: Antiproliferative activity against human NCI-H1975 cells harboring EGFR L858R/T790M double mutant assessed as inhibition of cell growth incubated for 48 to 72 hrs by CCK-8 assay; format: functional, cell-based
A-431 = test: Antiproliferative activity against human A-431 cells harboring EGFR wild type assessed as inhibition of cell growth incubated for 48 to 72 hrs by CCK-8 assay; format: functional, cell-based

C=CC(=O)Nc1cc(Nc2nccc(-c3cn(C)c4ccccc34)n2)c(OC)cc1N(C)CCN(C)C [OSIMERTINIB]
pIC50 (A549): 5.91 | pIC50 (HCC827): 8.22 | inhibition in vivo at 10 mg/kg [1]: 27% | pIC50 [2]: 5.17 | pIC50 (NCI-H1975): […] | pIC50 (A-431): […]

CCN(CC)C/C=C/C(=O)Nc1cc2c(Nc3ccc(F)c(Cl)c3)ncnc2cc1OCCCCCc1cn(CCCCCCCCCCC(=O)N[C@H](C(=O)N2C[C@H](O)C[C@H]2C(=O)N[C@H](C)c2ccc(-c3scnc3C)cc2)C(C)(C)C)nn1
pIC50 (A549): < 4.70 | pIC50 (HCC827): 8.00 | pIC50 [2]: < 4.70 | pIC50 (NCI-H1975): 5.27 | pIC50 (A-431): < 4.70

Cc1ncsc1-c1ccc(CNC(=O)[C@@H]2C[C@@H](O)CN2C(=O)[C@@H](NC(=O)CCCCn2cc(CCCCCOc3cc4ncnc(Nc5ccc(F)c(Cl)c5)c4cc3NC(=O)/C=C/CN3CCCCC3)nn2)C(C)(C)C)cc1
pIC50 (A549): < 4.70 | pIC50 (HCC827): 7.34 | pIC50 [2]: < 4.70 | pIC50 (NCI-H1975): 4.83 | pIC50 (A-431): < 4.70

Cc1ncsc1-c1ccc(CNC(=O)[C@@H]2C[C@@H](O)CN2C(=O)[C@@H](NC(=O)CCCCCCCCCCn2cc(CCCCCOc3cc4ncnc(Nc5ccc(F)c(Cl)c5)c4cc3NC(=O)/C=C/CN3CCCCC3)nn2)C(C)(C)C)cc1
pIC50 (A549): < 4.70 | pIC50 (HCC827): 7.57 | pIC50 [2]: < 4.70 | pIC50 (NCI-H1975): < 4.70 | pIC50 (A-431): < 4.70

CCN(CC)C/C=C/C(=O)Nc1cc2c(Nc3ccc(F)c(Cl)c3)ncnc2cc1OCCCCCc1cn(CCCCCCCCCCC(=O)N[C@H](C(=O)N2C[C@H](O)C[C@H]2C(=O)NCc2ccc(-c3scnc3C)cc2)C(C)(C)C)nn1
pIC50 (A549): < 4.70 | pIC50 (HCC827): 8.00 | pIC50 [2]: < 4.70 | pIC50 (NCI-H1975): 5.51 | pIC50 (A-431): < 4.70

Cc1ncsc1-c1ccc(CNC(=O)[C@@H]2C[C@@H](O)CN2C(=O)[C@@H](NC(=O)CCCCCCCCCCn2cc(COc3cc4ncnc(Nc5ccc(F)c(Cl)c5)c4cc3NC(=O)/C=C/CN3CCOCC3)nn2)C(C)(C)C)cc1
pIC50 (A549): < 4.70 | pIC50 (HCC827): 7.72 | pIC50 [2]: < 4.70 | pIC50 (NCI-H1975): < 4.70 | pIC50 (A-431): < 4.70

CCN(CC)C/C=C/C(=O)Nc1cc2c(Nc3ccc(F)c(Cl)c3)ncnc2cc1OCCCCCc1cn(CCCCC(=O)N[C@H](C(=O)N2C[C@H](O)C[C@H]2C(=O)NCc2ccc(-c3scnc3C)cc2)C(C)(C)C)nn1
pIC50 (A549): < 4.70 | pIC50 (HCC827): 7.23 | pIC50 [2]: < 4.70 | pIC50 (NCI-H1975): 5.46 | pIC50 (A-431): < 4.70

CCN(CC)C/C=C/C(=O)Nc1cc2c(Nc3ccc(F)c(Cl)c3)ncnc2cc1OCc1cn(CCCCCCCCCCC(=O)N[C@H](C(=O)N2C[C@H](O)C[C@H]2C(=O)N[C@H](C)c2ccc(-c3scnc3C)cc2)C(C)(C)C)nn1
pIC50 (A549): < 4.70 | pIC50 (HCC827): 8.00 | pIC50 [2]: < 4.70 | pIC50 (NCI-H1975): 6.16 | pIC50 (A-431): < 4.70

CCN(CC)C/C=C/C(=O)Nc1cc2c(Nc3ccc(F)c(Cl)c3)ncnc2cc1OCCCCCc1cn(CCCCC(=O)N[C@H](C(=O)N2C[C@H](O)C[C@H]2C(=O)N[C@H](C)c2ccc(-c3scnc3C)cc2)C(C)(C)C)nn1
pIC50 (A549): < 4.70 | pIC50 (HCC827): 7.27 | pIC50 [2]: < 4.70 | pIC50 (NCI-H1975): 5.73 | pIC50 (A-431): < 4.70

CCN(CC)C/C=C/C(=O)Nc1cc2c(Nc3ccc(F)c(Cl)c3)ncnc2cc1OCCCCCc1cn(CCCCCCCC(=O)N[C@H](C(=O)N2C[C@H](O)C[C@H]2C(=O)NCc2ccc(-c3scnc3C)cc2)C(C)(C)C)nn1
pIC50 (A549): < 4.70 | pIC50 (HCC827): 7.51 | pIC50 [2]: < 4.70 | pIC50 (NCI-H1975): 5.86 | pIC50 (A-431): < 4.70

Cc1ncsc1-c1ccc(CNC(=O)[C@@H]2C[C@@H](O)CN2C(=O)[C@@H](NC(=O)CCCCCCCCCCn2cc(COCCOCCOCCOc3cc4ncnc(Nc5ccc(F)c(Cl)c5)c4cc3NC(=O)/C=C/CN3CCCCC3)nn2)C(C)(C)C)cc1
pIC50 (A549): < 4.70 | pIC50 (HCC827): 7.82 | pIC50 [2]: < 4.70 | pIC50 (NCI-H1975): 5.63 | pIC50 (A-431): 4.94

Cc1ncsc1-c1ccc(CNC(=O)[C@@H]2C[C@@H](O)CN2C(=O)[C@@H](NC(=O)CCCCCCCn2cc(COCCOCCOCCOc3cc4ncnc(Nc5ccc(F)c(Cl)c5)c4cc3NC(=O)/C=C/CN3CCCCC3)nn2)C(C)(C)C)cc1
pIC50 (A549): < 4.70 | pIC50 (HCC827): 7.37 | pIC50 [2]: < 4.70 | pIC50 (NCI-H1975): 5.59 | pIC50 (A-431): 4.94

Cc1ncsc1-c1ccc(CNC(=O)[C@@H]2C[C@@H](O)CN2C(=O)[C@@H](NC(=O)CCCCCCCn2cc(CCCCCOc3cc4ncnc(Nc5ccc(F)c(Cl)c5)c4cc3NC(=O)/C=C/CN3CCCCC3)nn2)C(C)(C)C)cc1
pIC50 (A549): < 4.70 | pIC50 (HCC827): 7.28 | pIC50 [2]: < 4.70 | pIC50 (NCI-H1975): 5.24 | pIC50 (A-431): < 4.70
